What follows are molecules tested against T1, PDE4D5 (Homo sapiens, UniProt Q08499) (assay: PDE assay, [3H]cAMP hydrolysis by HEK-PDE4D5 cell lysate cytosol fraction). Details: 30 μM; mean % increase in counts over basal activity.
T1 construct: stably expressed the full-length human PDE4D5, PDE4B1 and PDE4A4 long isoforms; made in house
Assay type: biochemical
Method: HEK 293 cells were transfected with pDEST™ PDE4 expression vectors using Lipofectamine LTX/Plus reagent (Invitrogen) as outlined by the manufacturer and clonal isolates expanded to obtain cell lines that stably expressed the full-length human PDE4D5, PDE4B1 and PDE4A4 long isoforms and the full length human PDE4B2 short isoform. These were called the HEK-PDE4D5, HEK-PDE4B1, HEK-PDE4A4 and HEK-PDE4B2 cell lines, respectively.
HEK-PDE4D5 cells were seeded out in 100 mm plates and incubated at 37° C. in an atmosphere of 5% CO2, 95% air. Cell lysates were prepared using KHEM buffer [50 mM KCl, 10 mM EGTA, 50 mM HEPES (pH 7.2), 1.92 mM MgCl2].
To prepare the cell lysates, the 100 mm plates containing the cells were placed on ice and washed with ice-cold PBS (phosphate buffered saline, pH 7.4). KHEM buffer (500 μl) was added to the cells. Cells were then scraped off the plate and triturated using a needle (BD Microlance™ 0.8, 40 mm). The lysed cells were then centrifuged at 2000 rpm for 10 minutes to remove cell debris and the supernatant (cell lysate containing recombinant PDE4D5) was transferred to a fresh tube and kept on ice.
The cell lysate containing recombinant PDE4D5 was transferred into a centrifuge tube and placed into an ultracentrifuge (BECKMAN COULTER) and spun at high speed (100,000 g) for 30 minutes at 4° C. The cytosol fraction was then collected and its protein amount determined using a BCA protein assay.
PDE assays were performed in thin walled V-bottomed 96-well plates. The assays were performed at a final concentration of 10 mM Tris/5 mM MgCl2 plus PDE4D5 cell lysate cytosol fraction, containing over-expressed PDE4D5, with and without test compound. The lysate/compound mix were incubated together for 15 min at room temperature on an orbital shaker prior to addition of [^3H] cAMP (final concentration 1 μM [^3H] cAMP; Perkin Elmer) to a final volume of 50 μl per reaction. The reactions were then incubated for 10 minutes at 30° C., terminated by heating for 2 min at 95° C. and allowed to cool. Snake venom (12.5 μl of 1 mg/ml; Crotalus atrox, Sigma) was then added and the plates were agitated and incubated for a further 15 minutes at 30° C. Dowex ion exchange resin (Sigma, chloride form, 200-400 mesh; 200 μl; prepared as a 1:1 Dowex: water stock, thoroughly re-suspended and diluted 2:1 with ethanol) was then added to each well and the plates incubated for 15 min at room temperature on an orbital shaker ensuring sufficient agitation for resin suspension (550 RPM). The reaction mixture was then transferred to a 96 well filter plate (Millipore; […] pore size) and filtered into a receiving 96-well plate to remove the dowex suspension. 30 μL of the filtered solution was then transferred to the wells of an Opti-plate (Perkin Elmer) 96 well assay plate and 120 μl of Microscint 40 scintillation fluid was added. The plate was then placed on an orbital shaker for 10 min at high speed (900 RPM) to mix the sample with scintillation fluid prior to quantitation using a plate based scintillation counter (Top-Count).
The % increase in counts in the presence of test compound at a particular concentration indicates the % increase in enzyme activity at that concentration.

T1 sequence (Q08499 1-745 isoform Q08499-6): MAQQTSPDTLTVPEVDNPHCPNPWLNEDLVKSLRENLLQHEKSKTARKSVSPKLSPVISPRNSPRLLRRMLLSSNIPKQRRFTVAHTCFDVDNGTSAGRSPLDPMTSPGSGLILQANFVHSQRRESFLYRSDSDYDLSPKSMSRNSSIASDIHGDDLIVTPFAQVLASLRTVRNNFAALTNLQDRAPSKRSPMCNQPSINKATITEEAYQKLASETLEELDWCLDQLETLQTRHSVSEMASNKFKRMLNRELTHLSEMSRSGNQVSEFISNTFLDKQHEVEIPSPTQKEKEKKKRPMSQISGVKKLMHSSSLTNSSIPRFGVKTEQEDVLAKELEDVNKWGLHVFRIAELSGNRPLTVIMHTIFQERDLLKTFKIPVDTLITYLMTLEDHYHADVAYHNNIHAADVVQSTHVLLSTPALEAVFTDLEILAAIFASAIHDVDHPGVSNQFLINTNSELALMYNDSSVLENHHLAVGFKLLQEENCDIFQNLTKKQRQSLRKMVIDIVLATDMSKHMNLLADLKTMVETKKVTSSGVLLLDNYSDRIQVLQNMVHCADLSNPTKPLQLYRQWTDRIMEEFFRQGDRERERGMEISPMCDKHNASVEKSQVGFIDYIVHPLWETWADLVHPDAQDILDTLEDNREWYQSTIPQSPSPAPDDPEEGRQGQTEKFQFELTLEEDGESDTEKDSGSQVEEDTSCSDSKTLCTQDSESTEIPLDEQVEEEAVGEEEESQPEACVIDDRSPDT

| Structure (SMILES) | activation at 30 µM [%] |
| --- | --- |
| CCn1nc(-c2ccc(Cl)c(F)c2)nc1CC(=O)Nc1cc(C)on1 [Example 6, 2-[3-(4-Chloro-3-fluorophenyl)-1-ethyl-1H-1,2,4-triazol-5-yl]-N-(5-methyl-1,2-oxazol-3-yl)acetamide] | 38.5 |
| CCn1nc(-c2ccc(Cl)c(F)c2)nc1CC(=O)Nc1cnccn1 [Example 8, 2-[3-(4-Chloro-3-fluorophenyl)-1-ethyl-1H-1,2,4-triazol-5-yl]-N-(pyrazin-2-yl)acetamide] | 49.6 |
| CCn1nc(-c2ccc(Cl)c(F)c2)nc1CC(=O)NCc1cccc(F)c1F [Example 13, 2-[3-(4-Chloro-3-fluorophenyl)-1-ethyl-1H-1,2,4-triazol-5-yl]-N-[(2,3-difluorophenyl)methyl]acetamide] | 28.4 |
| CCn1nc(-c2ccc(Cl)c(F)c2)nc1CC(=O)NCc1cc(OC)cc(OC)c1 [Example 15, 2-[3-(4-Chloro-3-fluorophenyl)-1-ethyl-1H-1,2,4-triazol-5-yl]-N-[(3,5-dimethoxyphenyl)methyl]acetamide] | 61.5 |
| Cn1nc(-c2ccc(Cl)c(F)c2)nc1CC(=O)NCc1cc(Cl)cc(Cl)c1 [Example 18, 2-[3-(4-Chloro-3-fluorophenyl)-1-methyl-1H-1,2,4-triazol-5-yl]-N-[(3,5-dichlorophenyl)methyl]acetamide] | 77.8 |
| COc1cccc(CNC(=O)Cc2nc(-c3ccc(Cl)c(F)c3)nn2C)c1 [Example 19, 2-[3-(4-Chloro-3-fluorophenyl)-1-methyl-1H-1,2,4-triazol-5-yl]-N-[(3-methoxyphenyl)methyl]acetamide] | 87.8 |
| O=C(Cc1nc(-c2ccc(Cl)c(F)c2)nn1CCO)NCc1cc(Cl)cc(Cl)c1 [Example 23, 2-[3-(4-Chloro-3-fluorophenyl)-1-(2-hydroxyethyl)-1H-1,2,4-triazol-5-yl]-N-[(3,5-dichlorophenyl)methyl]acetamide] | 53.8 |
| CCn1nc(-c2ccc(Cl)c(F)c2)nc1C(C)C(=O)NCc1cccc(F)c1 (centres unmarked) [Example 24, 2-[3-(4-Chloro-3-fluorophenyl)-1-ethyl-1H-1,2,4-triazol-5-yl]-N-[(3-fluorophenyl)methyl]propanamide] | 72.2 |
| CCn1nc(-c2ccc(OC(F)(F)F)cc2)nc1CC(=O)NCc1cc(Cl)cc(Cl)c1 [Example 28, N-[(3,5-Dichlorophenyl)methyl]-2-{1-ethyl-3-[4-(trifluoromethoxy)phenyl]-1H-1,2,4-triazol-5-yl}acetamide] | 46.3 |
| CCn1nc(-c2ccc(C#N)cc2)nc1CC(=O)NCc1cc(Cl)cc(Cl)c1 [Example 30, 2-[3-(4-Cyanophenyl)-1-ethyl-1H-1,2,4-triazol-5-yl]-N-[(3,5-dichlorophenyl)methyl]acetamide] | 45.9 |
| CCOc1cc(-c2nc(CC(=O)NCc3cc(Cl)cc(Cl)c3)n(CC)n2)ccc1Cl [Example 32, 2-[3-(4-Chloro-3-ethoxyphenyl)-1-ethyl-1H-1,2,4-triazol-5-yl]-N-[(3,5-dichlorophenyl)methyl]acetamide] | 42.8 |
| CCn1nc(-c2ccc(Cl)c(OC(C)C)c2)nc1CC(=O)NCc1cc(C)nc(C)c1 [Example 35, 2-[3-(4-Chloro-3-isopropyloxyphenyl)-1-ethyl-1H-1,2,4-triazol-5-yl]-N-[(2,6-dimethylpyridin-4-yl)methyl]acetamide] | 28.5 |
| CCn1nc(-c2ccc(Cl)c(OC(C)C)c2)nc1CC(=O)N[C@H]1CCc2ccccc21 [Example 36, 2-[3-(4-Chloro-3-isopropyloxyphenyl)-1-ethyl-1H-1,2,4-triazol-5-yl]-N-[(1S)-2,3-dihydro-1H-inden-1-yl]acetamide] | 33 |
| CCn1nc(-c2ccc(Cl)c(OC(C)C)c2)nc1CC(=O)NCc1cccc(C#N)c1 [Example 37, 2-[3-(4-Chloro-3-isopropyloxyphenyl)-1-ethyl-1H-1,2,4-triazol-5-yl]-N-[(3-cyanophenyl)methyl]acetamide] | 40.2 |

Results, then the molecule that gave them:

| activation at 30 µM [%] | Structure (SMILES) |
| --- | --- |
| 32.2 | CCn1nc(-c2ccc(Cl)c(F)c2)nc1CC(=O)NCc1cccc2cn[nH]c12 [Example 4, 2-[3-(4-Chloro-3-fluorophenyl)-1-ethyl-1H-1,2,4-triazol-5-yl]-N-[(1H-indazol-7-yl)methyl]acetamide] |
| 56.1 | CCn1nc(-c2ccc(Cl)c(F)c2)nc1CC(=O)NCc1cc(Cl)cc(Cl)c1 [Example 5, 2-[3-(4-Chloro-3-fluorophenyl)-1-ethyl-1H-1,2,4-triazol-5-yl]-N-(3,5-dichlorobenzyl)acetamide] |
| 94.1 | CCn1nc(-c2ccc(Cl)c(F)c2)nc1CC(=O)NCc1ccc2[nH]ncc2c1 [Example 7, 2-[3-(4-Chloro-3-fluorophenyl)-1-ethyl-1H-1,2,4-triazol-5-yl]-N-[(1H-indazol-5-yl)methyl]acetamide] |
| 55.6 | CCn1nc(-c2ccc(Cl)c(F)c2)nc1CC(=O)NCc1ccc2[nH]c(=O)[nH]c2c1 [Example 9, 2-[3-(4-Chloro-3-fluorophenyl)-1-ethyl-1H-1,2,4-triazol-5-yl]-N-[(2-oxo-2,3-dihydro-1H-benzo[d]imidazol-5-yl)methyl]acetamide] |
| 136 | CCn1nc(-c2ccc(Cl)c(F)c2)nc1CC(=O)NCc1cc(C)cc(Cl)c1 [Example 10, 2-[3-(4-Chloro-3-fluorophenyl)-1-ethyl-1H-1,2,4-triazol-5-yl]-N-[(3-chloro-5-methylphenyl)methyl]acetamide] |
| 52.8 | CCn1nc(-c2ccc(Cl)c(F)c2)nc1CC(=O)NCc1cc(C)cc(F)c1 [Example 11, 2-[3-(4-Chloro-3-fluorophenyl)-1-ethyl-1H-1,2,4-triazol-5-yl]-N-[(3-fluoro-5-methylphenyl)methyl]acetamide] |
| 71.6 | CCn1nc(-c2ccc(Cl)c(F)c2)nc1CC(=O)NCc1cc(C)cc(C)c1 [Example 12, 2-[3-(4-Chloro-3-fluorophenyl)-1-ethyl-1H-1,2,4-triazol-5-yl]-N-[(3,5-dimethylphenyl)methyl]acetamide] |
| 142 | CCOc1cccc(CNC(=O)Cc2nc(-c3ccc(Cl)c(F)c3)nn2CC)c1 [Example 14, 2-[3-(4-Chloro-3-fluorophenyl)-1-ethyl-1H-1,2,4-triazol-5-yl]-N-[(3-ethoxyphenyl)methyl]acetamide] |
| 44.7 | CCn1nc(-c2ccc(Cl)c(F)c2)nc1CC(=O)NCc1ccc(OC)cc1 [Example 16, 2-[3-(4-Chloro-3-fluorophenyl)-1-ethyl-1H-1,2,4-triazol-5-yl]-N-[(4-methoxyphenyl)methyl]acetamide] |
| 26.8 | CCn1nc(-c2ccc(Cl)c(F)c2)nc1CC(=O)NCc1ccc(OC)nc1 [Example 17, 2-[3-(4-Chloro-3-fluorophenyl)-1-ethyl-1H-1,2,4-triazol-5-yl]-N-[(6-methoxypyridin-3-yl)methyl]acetamide] |
| 78.6 | Cn1nc(-c2ccc(Cl)c(F)c2)nc1CC(=O)NCc1cccc(F)c1 [Example 20, 2-[3-(4-Chloro-3-fluorophenyl)-1-methyl-1H-1,2,4-triazol-5-yl]-N-[(3-fluorophenyl)methyl]acetamide] |
| 60.8 | Cn1nc(-c2ccc(Cl)c(F)c2)nc1CC(=O)NCc1ccc2[nH]ncc2c1 [Example 21, 2-[3-(4-Chloro-3-fluorophenyl)-1-methyl-1H-1,2,4-triazol-5-yl]-N-[(1H-indazol-5-yl)methyl]acetamide] |
| 87.5 | Cc1cc(CNC(=O)Cc2nc(-c3ccc(Cl)c(F)c3)nn2CC2CC2)cc(C)n1 [Example 26, 2-[3-(4-Chloro-3-fluorophenyl)-1-(cyclopropylmethyl)-1H-1,2,4-triazol-5-yl]-N-[(2,6-dimethylpyridin-4-yl)methyl]acetamide] |
| 106 | O=C(Cc1nc(-c2ccc(Cl)c(F)c2)nn1CC1CC1)NCc1ccc2[nH]ncc2c1 [Example 27, 2-[3-(4-Chloro-3-fluorophenyl)-1-(cyclopropylmethyl)-1H-1,2,4-triazol-5-yl]-N-[(1H-indazol-5-yl)methyl]acetamide] |

Same assay, conditions: dose response, FIG. 1

| activation of PDE4 long form PDE4D5 (FIG. 1) | Structure (SMILES) |
| --- | --- |
| dose-dependent activation | CCn1nc(-c2ccc(Cl)c(F)c2)nc1CC(=O)NCc1cc(Cl)cc(Cl)c1 [Example 5, 2-[3-(4-Chloro-3-fluorophenyl)-1-ethyl-1H-1,2,4-triazol-5-yl]-N-(3,5-dichlorobenzyl)acetamide] |

Reference: patent US11560373B2, “Compounds and their use as PDE4 activators” (Mironid Limited, priority 2018, dated 2023)
